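Interpolation was linear, between the two tested concentrations surrounding the appropriate level; five concentrations were tested over 48 hours in 96-well plates. Here, GI50 denotes the concentration required for 50% inhibition of growth.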 Activity calls are given as the source filed them. Cut-off read from the data, not from the text of the source: active = GI50 up to about 1.1 µM and inactive = higher.
Legend:
Assay in all cases: DTP human tumour cell line panel, 48 h
UACC-257 = system: UACC-257
Malme-3M = system: Malme-3M
TK-10 = system: TK-10
EKVX = system: EKVX
SNB-78 = system: SNB-78
RXF 393 = system: RXF 393
A549 = system: A549
DLD-1 = system: DLD-1
LXFL 529 = system: LXFL 529
HT-29 = system: HT-29
SW-620 = system: SW-620
SNB-19 = system: SNB-19
SK-OV-3 = system: SK-OV-3
CCRF-CEM = system: CCRF-CEM
KM12 = system: KM12
K562 = system: K562
SF-268 = system: SF-268
NCI-H226 = system: NCI-H226
A498 = system: A498
SNB-75 = system: SNB-75
UO-31 = system: UO-31
OVCAR-3 = system: OVCAR-3
HCT-116 = system: HCT-116
M19-MEL = system: M19-MEL
HOP-62 = system: HOP-62
DMS-114 = system: DMS-114
HL-60 = system: HL-60
SK-MEL-2 = system: SK-MEL-2
SF-539 = system: SF-539
XF498 = system: XF498
KM-20L2 = system: KM-20L2
COLO 205 = system: COLO 205
U-251 = system: U-251
HCC 2998 = system: HCC 2998
MOLT-4 = system: MOLT-4
HCT-15 = system: HCT-15
NCI-H522 = system: NCI-H522
ACHN = system: ACHN
OVCAR-5 = system: OVCAR-5
M14 = system: M14
SK-MEL-28 = system: SK-MEL-28
NCI-H460 = system: NCI-H460
LOX IMVI = system: LOX IMVI
HOP-18 = system: HOP-18
SF-295 = system: SF-295
OVCAR-4 = system: OVCAR-4
RXF 631 = system: RXF 631
RPMI-8226 = system: RPMI-8226
NCI-H23 = system: NCI-H23
SN12C = system: SN12C
OVCAR-8 = system: OVCAR-8
786-0 = system: 786-0
SK-MEL-5 = system: SK-MEL-5
UACC-62 = system: UACC-62
SR = system: SR
IGROV-1 = system: IGROV-1
HOP-92 = system: HOP-92
CAKI-1 = system: CAKI-1

`O=C1Nc2ccccc2C1(O)C/C(=N/O)c1ccc2ccccc2c1` (stereo not given) was tested, and the GI50 (UACC-257) was > 100 µM (inactive), the GI50 (Malme-3M) was > 100 µM (inactive) and the GI50 (TK-10) was > 100 µM (inactive). For the same compound, the GI50 (EKVX) was > 100 µM (inactive), the GI50 (SNB-78) was 60.1 µM (inactive) and the GI50 (RXF 393) was 58.9 µM (inactive). The GI50 (A549) was > 100 µM (inactive), the GI50 (DLD-1) was > 100 µM (inactive) and the GI50 (LXFL 529) was 91.2 µM (inactive). For the same compound, the GI50 (HT-29) was > 100 µM (inactive), the GI50 (SW-620) was > 100 µM (inactive) and the GI50 (SNB-19) was > 100 µM (inactive). For the same compound, the GI50 (SK-OV-3) was 49.1 µM (inactive), the GI50 (CCRF-CEM) was 47.2 µM (inactive) and the GI50 (KM12) was > 100 µM (inactive). The GI50 (K562) was 72.6 µM (inactive), the GI50 (SF-268) was > 100 µM (inactive) and the GI50 (NCI-H226) was > 100 µM (inactive). For the same compound, the GI50 (A498) was > 100 µM (inactive), the GI50 (SNB-75) was 28.6 µM (inactive) and the GI50 (UO-31) was 75.9 µM (inactive). The GI50 (OVCAR-3) was > 100 µM (inactive), the GI50 (HCT-116) was > 100 µM (inactive) and the GI50 (M19-MEL) was 45.5 µM (inactive). For the same compound, the GI50 (HOP-62) was > 100 µM (inactive), the GI50 (DMS-114) was 64.6 µM (inactive) and the GI50 (HL-60) was 41.8 µM (inactive). The GI50 (SK-MEL-2) was > 100 µM (inactive), the GI50 (SF-539) was > 100 µM (inactive) and the GI50 (XF498) was 93.3 µM (inactive). The GI50 (KM-20L2) was > 100 µM (inactive), the GI50 (COLO 205) was > 100 µM (inactive) and the GI50 (U-251) was 86.5 µM (inactive). The GI50 (HCC 2998) was > 100 µM (inactive), the GI50 (MOLT-4) was 64.9 µM (inactive) and the GI50 (HCT-15) was over 100 µM. For the same compound, the GI50 (NCI-H522) was > 100 µM (inactive), the GI50 (ACHN) was > 100 µM (inactive) and the GI50 (OVCAR-5) was > 100 µM (inactive). For the same compound, the GI50 (M14) was > 100 µM (inactive), the GI50 (SK-MEL-28) was > 100 µM (inactive) and the GI50 (NCI-H460) was > 100 µM (inactive). For the same compound, the GI50 (LOX IMVI) was 22.3 µM (inactive), the GI50 (HOP-18) was > 100 µM (inactive) and the GI50 (SF-295) was > 100 µM (inactive). The GI50 (OVCAR-4) was > 100 µM (inactive), the GI50 (RXF 631) was 29.7 µM (inactive) and the GI50 (RPMI-8226) was 87.1 µM (inactive). For the same compound, the GI50 (NCI-H23) was 71.9 µM (inactive), the GI50 (SN12C) was > 100 µM (inactive) and the GI50 (OVCAR-8) was > 100 µM (inactive). The GI50 (786-0) was > 100 µM (inactive).
For `C=CCCCn1ccc2ccccc21`, the GI50 (UACC-257) was > 100 µM (inactive), the GI50 (SK-MEL-5) was > 100 µM (inactive) and the GI50 (UACC-62) was 75.9 µM (inactive). The GI50 (Malme-3M) was > 100 µM (inactive), the GI50 (TK-10) was > 100 µM (inactive) and the GI50 (EKVX) was > 100 µM (inactive). For the same compound, the GI50 (RXF 393) was > 100 µM (inactive), the GI50 (SR) was > 100 µM (inactive) and the GI50 (A549) was > 100 µM (inactive). The GI50 (DLD-1) was > 100 µM (inactive), the GI50 (LXFL 529) was > 100 µM (inactive) and the GI50 (HT-29) was > 100 µM (inactive). The GI50 (SW-620) was > 100 µM (inactive), the GI50 (SNB-19) was > 100 µM (inactive) and the GI50 (SK-OV-3) was > 100 µM (inactive). For the same compound, the GI50 (CCRF-CEM) was > 100 µM (inactive), the GI50 (KM12) was > 100 µM (inactive) and the GI50 (K562) was > 100 µM (inactive). The GI50 (SF-268) was > 100 µM (inactive), the GI50 (NCI-H226) was > 100 µM (inactive) and the GI50 (A498) was > 100 µM (inactive). For the same compound, the GI50 (SNB-75) was > 100 µM (inactive), the GI50 (UO-31) was > 100 µM (inactive) and the GI50 (IGROV-1) was > 100 µM (inactive). For the same compound, the GI50 (OVCAR-3) was > 100 µM (inactive), the GI50 (HCT-116) was > 100 µM (inactive) and the GI50 (M19-MEL) was > 100 µM (inactive). For the same compound, the GI50 (HOP-62) was > 100 µM (inactive), the GI50 (DMS-114) was > 100 µM (inactive) and the GI50 (HL-60) was > 100 µM (inactive). For the same compound, the GI50 (SK-MEL-2) was > 100 µM (inactive), the GI50 (SF-539) was > 100 µM (inactive) and the GI50 (XF498) was > 100 µM (inactive). For the same compound, the GI50 (HOP-92) was 7.45 µM (inactive), the GI50 (KM-20L2) was > 100 µM (inactive) and the GI50 (COLO 205) was > 100 µM (inactive). The GI50 (U-251) was > 100 µM (inactive), the GI50 (HCC 2998) was > 100 µM (inactive) and the GI50 (MOLT-4) was > 100 µM (inactive). For the same compound, the GI50 (HCT-15) was over 100 µM, the GI50 (NCI-H522) was > 100 µM (inactive) and the GI50 (ACHN) was > 100 µM (inactive). For the same compound, the GI50 (OVCAR-5) was > 100 µM (inactive), the GI50 (M14) was > 100 µM (inactive) and the GI50 (SK-MEL-28) was > 100 µM (inactive). The GI50 (NCI-H460) was > 100 µM (inactive), the GI50 (LOX IMVI) was > 100 µM (inactive) and the GI50 (HOP-18) was > 100 µM (inactive). For the same compound, the GI50 (SF-295) was > 100 µM (inactive), the GI50 (RXF 631) was > 100 µM (inactive) and the GI50 (RPMI-8226) was > 100 µM (inactive). For the same compound, the GI50 (NCI-H23) was > 100 µM (inactive), the GI50 (SN12C) was > 100 µM (inactive) and the GI50 (OVCAR-8) was > 100 µM (inactive). For the same compound, the GI50 (786-0) was > 100 µM (inactive).
For `COC(=O)C(=O)C(C(=O)OC)C(=O)C(=O)Nc1c(C)cccc1C` (stereo not given), the GI50 (UACC-257) was > 100 µM (inactive), the GI50 (SK-MEL-5) was > 100 µM (inactive) and the GI50 (UACC-62) was > 100 µM (inactive). For the same compound, the GI50 (Malme-3M) was > 100 µM (inactive), the GI50 (TK-10) was > 100 µM (inactive) and the GI50 (EKVX) was > 100 µM (inactive). The GI50 (SNB-78) was > 100 µM (inactive), the GI50 (RXF 393) was > 100 µM (inactive) and the GI50 (SR) was > 100 µM (inactive). The GI50 (A549) was > 100 µM (inactive), the GI50 (DLD-1) was > 100 µM (inactive) and the GI50 (LXFL 529) was > 100 µM (inactive). The GI50 (HT-29) was > 100 µM (inactive), the GI50 (SW-620) was > 100 µM (inactive) and the GI50 (SNB-19) was > 100 µM (inactive). The GI50 (SK-OV-3) was > 100 µM (inactive), the GI50 (CCRF-CEM) was 48.2 µM (inactive) and the GI50 (KM12) was > 100 µM (inactive). The GI50 (K562) was > 100 µM (inactive), the GI50 (SF-268) was > 100 µM (inactive) and the GI50 (NCI-H226) was > 100 µM (inactive). For the same compound, the GI50 (A498) was > 100 µM (inactive), the GI50 (SNB-75) was > 100 µM (inactive) and the GI50 (UO-31) was > 100 µM (inactive). The GI50 (IGROV-1) was > 100 µM (inactive), the GI50 (OVCAR-3) was > 100 µM (inactive) and the GI50 (HCT-116) was > 100 µM (inactive). For the same compound, the GI50 (CAKI-1) was > 100 µM (inactive), the GI50 (M19-MEL) was > 100 µM (inactive) and the GI50 (HOP-62) was > 100 µM (inactive). For the same compound, the GI50 (DMS-114) was > 100 µM (inactive), the GI50 (HL-60) was > 100 µM (inactive) and the GI50 (SK-MEL-2) was > 100 µM (inactive). For the same compound, the GI50 (SF-539) was > 100 µM (inactive), the GI50 (XF498) was > 100 µM (inactive) and the GI50 (HOP-92) was 41.6 µM (inactive). For the same compound, the GI50 (KM-20L2) was > 100 µM (inactive), the GI50 (COLO 205) was > 100 µM (inactive) and the GI50 (U-251) was > 100 µM (inactive). For the same compound, the GI50 (HCC 2998) was > 100 µM (inactive), the GI50 (MOLT-4) was > 100 µM (inactive) and the GI50 (HCT-15) was over 100 µM. The GI50 (NCI-H522) was 97.5 µM (inactive), the GI50 (ACHN) was > 100 µM (inactive) and the GI50 (OVCAR-5) was > 100 µM (inactive). The GI50 (M14) was > 100 µM (inactive), the GI50 (SK-MEL-28) was > 100 µM (inactive) and the GI50 (NCI-H460) was > 100 µM (inactive). The GI50 (LOX IMVI) was > 100 µM (inactive), the GI50 (HOP-18) was > 100 µM (inactive) and the GI50 (SF-295) was > 100 µM (inactive). For the same compound, the GI50 (OVCAR-4) was > 100 µM (inactive), the GI50 (RXF 631) was > 100 µM (inactive) and the GI50 (RPMI-8226) was > 100 µM (inactive). The GI50 (NCI-H23) was > 100 µM (inactive), the GI50 (SN12C) was > 100 µM (inactive) and the GI50 (OVCAR-8) was > 100 µM (inactive). For the same compound, the GI50 (786-0) was > 100 µM (inactive).

— ChEMBL document CHEMBL1201862, “PubChem BioAssay data set” (2004)
